Experimental data from US8772509B2, “Indole compounds as positive allosteric modulators of the muscarinic receptor” (Vanderbilt University, priority 2010, dated 2014).
pEC50: −log10 of the molar value.

Target: T1, mAChR M1 (UniProt P08482)
T1 sequence (P08482 1-460): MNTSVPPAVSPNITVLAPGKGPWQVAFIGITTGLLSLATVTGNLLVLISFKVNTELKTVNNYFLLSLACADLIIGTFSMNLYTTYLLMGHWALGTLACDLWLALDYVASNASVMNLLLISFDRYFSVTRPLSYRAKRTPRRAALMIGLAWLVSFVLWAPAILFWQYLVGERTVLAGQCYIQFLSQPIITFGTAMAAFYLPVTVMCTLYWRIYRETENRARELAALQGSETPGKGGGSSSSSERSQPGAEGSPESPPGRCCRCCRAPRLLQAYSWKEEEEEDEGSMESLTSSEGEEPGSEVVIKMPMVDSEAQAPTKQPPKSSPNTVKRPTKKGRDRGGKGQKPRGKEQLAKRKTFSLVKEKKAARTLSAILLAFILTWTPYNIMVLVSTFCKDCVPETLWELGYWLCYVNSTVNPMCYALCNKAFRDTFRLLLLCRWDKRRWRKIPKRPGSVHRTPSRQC
Assay: mAChR M1 cell-based functional assay (calcium mobilization, Fluo-4, FDSS)
Conditions: for Efficacy (% ACh maximum at 30 μM): maximal calcium flux response from curve fit or response at 30 μM compound, as % of the EC80 ACh response; for pEC50: positive allosteric modulation of EC20 acetylcholine response, CHO-K1 cells expressing mAChR M1, read-out: Potency (EC50)
Protocol: Chinese hamster ovary (CHO-K1) cells stably expressing rat (r)M1 were purchased from the American Type Culture Collection and cultured according to their indicated protocol. […] To make stable rM2, hM2, rM3, hM4, and rM4 cell lines for use in calcium mobilization assays, these cells also were stably transfected with a chimeric G-protein (Gqi5) (provided by B. R. Conklin, University of California, San Francisco) using Lipofectamine 2000. rM1, hM1, rM3, hM3, rM5, and hM5 cells were grown in Ham's F-12 medium containing 10% heat-inactivated fetal bovine serum (FBS), 20 mM HEPES, and 50 μg/mL G418 sulfate. rM2-Gqi5, hM2-Gqi5, and hM4-Gqi5 cells were grown in the same medium also containing 500 μg/mL Hygromycin B. Stable rM4-Gqi5 cells were grown in DMEM containing 10% heat-inactivated FBS, 20 mM HEPES, 400 μg/mL G418 sulfate, and 500 μg/mL Hygromycin B.
For high throughput measurement of agonist-evoked increases in intracellular calcium, CHO-K1 cells stably expressing muscarinic receptors were plated in growth medium lacking G418 and hygromycin at 15,000 cells/20 μL/well in Greiner 384-well black-walled, tissue culture (TC)-treated, clear-bottom plates (VWR). Cells were incubated overnight at 37° C. and 5% CO2. […] Compound master plates were formatted in an 11 point CRC format (1:3 dilutions) in 100% DMSO with a starting concentration of 10 mM using the BRAVO liquid handler (Agilent). Test compound CRCs were then transferred to daughter plates (240 nL) using the Echo acoustic plate reformatter (Labcyte, Sunnyvale, Calif.) and then diluted into assay buffer (40 μL) to a 2× stock using a Thermo Fisher Combi (Thermo Fisher Scientific, Waltham, Mass.).
Calcium flux was measured using the Functional Drug Screening System (FDSS) 6000 (Hamamatsu Corporation, Tokyo, Japan) as an increase in the fluorescent static ratio. Compounds were applied to cells (20 μL, 2×) using the automated system of the FDSS 6000 at 4 s into the 300 s protocol and the data were collected at 1 Hz. […] Agonist activity was analyzed as a concentration-dependent increase in calcium mobilization upon compound addition. Positive allosteric modulator activity was analyzed as a concentration-dependent increase in the EC20 acetylcholine response. Antagonist activity was analyzed as a concentration-dependent decrease in the EC80 acetylcholine response. Concentration-response curves were generated using a four-parameter logistical equation in XLfit curve fitting software (IDBS, Bridgewater, N.J.) for Excel (Microsoft, Redmond, Wash.) or Prism (GraphPad Software, Inc., San Diego, Calif.).
The calcium mobilization assay was also used to determine “efficacy”. In the context of the assays carried out for the data in Table I, “efficacy” (% ACh at 30 μM) is defined as the maximal response in the calcium flux as determined by the sigmoidal curve fit of the concentration response curve, or in the absence of an acceptable curve fit, the response recorded at 30 μM test compound, stated as a percentage of the response elicited by a concentration of Ach that induces approximately 80% of a maximal (i.e. saturating) ACh response.

| SMILES | Efficacy (% ACh maximum at 30 μM) | pEC50 |
| --- | --- | --- |
| Cc1cc(NC(=O)C[S+]([O-])c2cn(Cc3cccc(Cl)c3)c3ccccc23)no1 (stereo not shown) [compound 29, 2-((1-(3-chlorobenzyl)-1H-indol-3-yl)sulfinyl)-N-(5-methylisoxazol-3-yl)acetamide] | 93% | 5.28 |
| Cc1cc(NC(=O)CS(=O)(=O)c2cn(Cc3ccc(F)cc3F)c3ccccc23)no1 [compound 49, 2-{1-[(2,4-difluorophenyl)methyl]-1H-indole-3-sulfonyl}-N-(5-methyl-1,2-oxazol-3-yl)acetamide] | – | < 5.00 |
| Cc1cc(NC(=O)C(Cc2ccc(OC(F)(F)F)cc2)S(=O)(=O)c2cn(Cc3ccc(OC(F)(F)F)cc3)c3ccccc23)no1 (stereo not shown) [compound 74, N-(5-methyl-1,2-oxazol-3-yl)-3-[4-(trifluoromethoxy)phenyl]-2-(1-{[4-(trifluoromethoxy)phenyl]methyl}-1H-indole-3-sulfonyl)propanamide] | – | < 5.00 |
| Cc1cc(NC(=O)CS(=O)(=O)c2cn(Cc3ccc(Cl)cc3)c3ccccc23)no1 [compound 48, 2-{1-[(4-chlorophenyl)methyl]-1H-indole-3-sulfonyl}-N-(5-methyl-1,2-oxazol-3-yl)acetamide] | – | < 5.00 |
| Cc1cc(NC(=O)CS(=O)(=O)c2cn(Cc3cc(-c4cn[nH]c4)ccc3F)c3ccccc23)no1 [compound 15, 2-((1-(2-fluoro-5-(1H-pyrazol-4-yl)benzyl)-1H-indol-3-yl)sulfonyl)-N-(5-methylisoxazol-3-yl)acetamide] | 96% | 5.51 |
| Cc1cc(NC(=O)CS(=O)(=O)c2cn(Cc3ccc(OC(F)(F)F)cc3)c3ccccc23)no1 [compound 57, N-(5-methyl-1,2-oxazol-3-yl)-2-(1-{[4-(trifluoromethoxy)phenyl]methyl}-1H-indole-3-sulfonyl)acetamide] | – | < 5.00 |
| COc1cccc(Cn2cc(S(=O)(=O)CC(=O)Nc3cc(C)on3)c3ccccc32)c1 [compound 33, 2-((1-(3-methoxybenzyl)-1H-indol-3-yl)sulfonyl)-N-(5-methylisoxazol-3-yl)acetamide] | 79% | 5.18 |
| O=C(CS(=O)(=O)c1cn(Cc2cccc(-c3cccnc3Cl)c2)c2cc(F)cc(F)c12)Nc1ccccn1 [compound 11, 2-((1-(3-(2-chloropyridin-3-yl)benzyl)-4,6-difluoro-1H-indol-3-yl)sulfonyl)-N-(pyridin-2-yl)acetamide] | 43% | 5.57 |
| Cc1cc(NC(=O)CS(=O)(=O)c2cn(Cc3cccc(-n4ccnn4)c3)c3cc(F)cc(F)c23)no1 [compound 3, 2-((1-(3-(1H-1,2,3-triazol-1-yl)benzyl)-4,6-difluoro-1H-indol-3-yl)sulfonyl)-N-(5-methylisoxazol-3-yl)acetamide] | 72% | 5.82 |
| Cc1cc(NC(=O)CS(=O)(=O)c2cn(Cc3cccc(-c4cn[nH]c4)c3)c3ccccc23)no1 [compound 5, 2-((1-(3-(1H-pyrazol-4-yl)benzyl)-1H-indol-3-yl)sulfonyl)-N-(5-methylisoxazol-3-yl)acetamide] | 90% | 5.66 |
| Cc1cc(NC(=O)CS(=O)(=O)c2cn(Cc3ccc(F)c(-c4cc[nH]n4)c3)c3ccccc23)no1 [compound 58, 2-(1-{[4-fluoro-3-(1H-pyrazol-3-yl)phenyl]methyl}-1H-indole-3-sulfonyl)-N-(5-methyl-1,2-oxazol-3-yl)acetamide] | – | < 5.00 |
| Cc1cc(NC(=O)CS(=O)(=O)c2cn(Cc3cccc(-c4ccc(N5CCCC5)nc4)c3)c3ccccc23)no1 [compound 67, N-(5-methyl-1,2-oxazol-3-yl)-2-[1-({3-[6-(pyrrolidin-1-yl)pyridin-3-yl]phenyl}methyl)-1H-indole-3-sulfonyl]acetamide] | – | < 5.00 |
| COc1ncc(-c2cccc(Cn3cc(S(=O)(=O)CC(=O)Nc4ccccn4)c4c(F)cc(F)cc43)c2)cn1 [compound 18, 2-((4,6-difluoro-1-(3-(2-methoxypyrimidin-5-yl)benzyl)-1H-indol-3-yl)sulfonyl)-N-(pyridin-2-yl)acetamide] | 50% | 5.47 |
| Cc1cc(NC(=O)CS(=O)(=O)c2cn(Cc3cccc(-c4cnn(CC(C)C)c4)c3)c3ccccc23)no1 [compound 65, N-(5-methyl-1,2-oxazol-3-yl)-2-[1-({3-[1-(2-methylpropyl)-1H-pyrazol-4-yl]phenyl}methyl)-1H-indole-3-sulfonyl]acetamide] | – | < 5.00 |
| Nc1cccc(Cn2cc(S(=O)(=O)CC(=O)Nc3ccccn3)c3c(F)cc(F)cc32)c1 [compound 31, 2-((1-(3-aminobenzyl)-4,6-difluoro-1H-indol-3-yl)sulfonyl)-N-(pyridin-2-yl)acetamide] | 69% | 5.25 |
| Cc1cc(NC(=O)CS(=O)(=O)c2cn(Cc3ccc(F)nc3)c3ccccc23)no1 [compound 44, 2-{1-[(6-fluoropyridin-3-yl)methyl]-1H-indole-3-sulfonyl}-N-(5-methyl-1,2-oxazol-3-yl)acetamide] | – | < 5.00 |
| COc1ccc(Cn2cc(S(=O)(=O)CC(=O)Nc3cc(C)on3)c3ccccc32)cc1 [compound 46, 2-{1-[(4-methoxyphenyl)methyl]-1H-indole-3-sulfonyl}-N-(5-methyl-1,2-oxazol-3-yl)acetamide] | – | < 5.00 |
| Cc1cc(NC(=O)CS(=O)(=O)c2cn(Cc3cccc(C(F)(F)F)c3)c3ccccc23)no1 [compound 54, N-(5-methyl-1,2-oxazol-3-yl)-2-(1-{[3-(trifluoromethyl)phenyl]methyl}-1H-indole-3-sulfonyl)acetamide] | – | < 5.00 |
| COc1ccc(-c2cccc(Cn3cc(S(=O)(=O)CC(=O)Nc4ccccn4)c4c(F)cc(F)cc43)c2)cn1 [compound 16, 2-((4,6-difluoro-1-(3-(6-methoxypyridin-3-yl)benzyl)-1H-indol-3-yl)sulfonyl)-N-(pyridin-2-yl)acetamide] | 42% | 5.48 |
| Cc1cc(NC(=O)CS(=O)(=O)c2cn(Cc3ccc(C(F)(F)F)cc3)c3ccccc23)no1 [compound 53, N-(5-methyl-1,2-oxazol-3-yl)-2-(1-{[4-(trifluoromethyl)phenyl]methyl}-1H-indole-3-sulfonyl)acetamide] | – | < 5.00 |
| Cc1cc(NC(=O)CS(=O)(=O)c2cn(Cc3cccc(-c4ccncc4)c3)c3cc(F)cc(F)c23)no1 [compound 2, 2-((4,6-difluoro-1-(3-(pyridin-4-yl)benzyl)-1H-indol-3-yl)sulfonyl)-N-(5-methylisoxazol-3-yl)acetamide] | 66% | 5.92 |
| Cc1cc(NC(=O)CS(=O)(=O)c2cn(Cc3cccc(-c4ccc(Cl)nc4)c3)c3ccccc23)no1 [compound 64, 2-(1-{[3-(6-chloropyridin-3-yl)phenyl]methyl}-1H-indole-3-sulfonyl)-N-(5-methyl-1,2-oxazol-3-yl)acetamide] | – | < 5.00 |
| Cc1noc(C)c1-c1cccc(Cn2cc(S(=O)(=O)CC(=O)Nc3ccccn3)c3c(F)cc(F)cc32)c1 [compound 17, 2-((1-(3-(3,5-dimethylisoxazol-4-yl)benzyl)-4,6-difluoro-1H-indol-3-yl)sulfonyl)-N-(pyridin-2-yl)acetamide] | 42% | 5.47 |
